Test results as given in US20220279787A1, “a-Substituted Phenyl Structure-Containing Compound, Preparation Method Thereof, and Disinfectant” (Henan Ruibo Pharmaceutical Technology Co. Ltd., priority 2019, published 2022).

Legend:
Type in all cases: cell-based
[1] = test system: Staphylococcus aureus ATCC 29213; assay: Suspension quantitative sterilization experiment, Staphylococcus aureus ATCC 29213; conditions: for Activity (killing logarithmic value): suspension method, 6.25 g/L, action time 30 min
Experimental: (§1) (5) Operation Method of Suspension Quantitative Experiment:
(§2) a. The freeze-dried strain tube was provided, opened up under an aseptic condition, and an appropriate amount of nutrient broth was added thereto with a capillary pipette. The strain was melted and dispersed by gently blowing and sucking several times. A test tube containing 5.0 mL-10.0 mL of nutrient broth medium was provided, and a small amount of bacterial suspension was dropped thereto, and incubated at 37° C. for 18 h-24 h. The bacterial suspension of the first generation culture was taken by using an inoculation loop, and streaked and inoculated onto a nutrient agar medium plate, and incubated at 37° C. for 18 h-24 h. The typical colonies from the second generation culture was picked out, inoculated onto a nutrient agar slant, and incubated at 37° C. for 18 h-24 h, obtaining the third generation culture.
(§3) b. The monoclonal strains of the third generation culture of Escherichia coli ATCC 25922, Staphylococcus aureus ATCC 29213, and Pseudomonas aeruginosa ATCC 27853 were picked out respectively and placed in 3 mL of NMB. The strains were shaken in a constant temperature culture shaker for 3 h with a rotation speed of 220 rpm, obtaining a bacterial suspension with a concentration of (1-5)×10^8 CFU/mL.
(§4) c. 0.5 mL of bacterial suspension was added to a sterile test tube, and 0.5 mL of an organic interfering substance (0.03 mol/L PBS buffer) was then added thereto. They were mixed to be uniform, and placed in a water bath at 20° C.±1° C. for 5 min. 4.0 mL of the sample to be tested prepared in step (1) was drawn with a sterile pipette and injected into the mixed solution, mixed quickly, and the time was recorded immediately.
(§5) d. After the experimental bacteria interacted with the sample to be tested for the predetermined time of 1 min, 5 min, 15 min and 30 min. 0.5 mL of the mixture of the experimental bacteria and the sample to be tested was drawn respectively and added to 4.5 mL of a neutralizer, and mixed to be uniform.
(§6) e. After 10 min of neutralization, 1.0 mL of the sample solution was drawn, and the number of viable bacteria was determined by viable count method. After the viable count method, sample solution of each pipette was inoculated onto 2 plates. When the number of colonies growing on the plate was large, 10-fold dilution was performed, and then the viable bacteria was cultured and counted.
(§7) f. At the same time, PBS buffer was used to replace the sample to be tested, and a parallel test was performed as a positive control.
(§8) g. All test samples were placed in a 37° C. incubator overnight, and the results were observed.
(§9) h. The experiment was repeated for 3 times, the concentration of viable bacteria (CFU/mL) of each group was calculated, and converted to logarithmic value (N), and then the killing logarithmic value was calculated according to the following equation:
(§10) Killing logarithmic value (KL)=the logarithmic value of the average viable bacteria concentration of the control group (No)−the logarithmic value of the viable bacteria concentration of the test group (Nx).
(§11) When calculating the killing logarithmic value, two digits after the decimal point was kept, and digital round-off was allowed.

[2] = test system: Escherichia coli ATCC 25922; assay: Suspension quantitative sterilization experiment, Escherichia coli ATCC 25922; conditions: for Activity (killing logarithmic value): suspension method, 6.25 g/L, action time 30 min
Experimental: as §1, §2, §3, §4, §5, §6, §7, §8, §9, §10, §11

[3] = test system: Pseudomonas aeruginosa ATCC 27853; assay: Suspension quantitative sterilization experiment, Pseudomonas aeruginosa ATCC 27853; conditions: for Activity (killing logarithmic value): suspension method, 6.25 g/L, action time 30 min
Experimental: as §1, §2, §3, §4, §5, §6, §7, §8, §9, §10, §11

[4] = test system: Bacillus subtilis var. niger spores ATCC 9372; assay: Suspension quantitative experiment, Bacillus subtilis var. niger spores; conditions: Bacillus subtilis, ATCC9372, 0.5 h, read-out: Activity (killing logarithmic value)
Experimental: (4) Operation Method of Suspension Quantitative Experiment:
a. The Bacillus subtilis var. niger spores ATCC 9372 freeze-dried strain tube was provided, opened up under an aseptic condition, and an appropriate amount of nutrient broth was added thereto with a capillary pipette. The strain was melted and dispersed by gently blowing and sucking several times. A test tube containing 5.0 mL-10.0 mL of nutrient broth medium was provided, and a small amount of bacterial suspension was dropped thereto, and incubated at 37° C. for 18 h-24 h. The bacterial suspension of the first generation culture was taken by using an inoculation loop.
b. The monoclonal strains of the first generation culture were picked out and placed in 3 mL of NMB. The strains were shaken in a constant temperature culture shaker for 3 h with a rotation speed of 220 rpm, obtaining a bacterial suspension with a concentration of (1-5)×10^8 CFU/mL.
as §4
d. After the experimental bacteria interacted with the sample to be tested for the predetermined time. 0.5 mL of the mixture of the experimental bacteria and a disinfectant was drawn respectively and added to 4.5 mL of a neutralizer, and mixed to be uniform.
as §6
h. At the same time, PBS buffer was used to replace the sample to be tested, and a parallel test was performed as a positive control.
f. All test samples were placed in a 37° C. incubator overnight, and the results were observed.
g. The experiment was repeated for 3 times, the concentration of viable bacteria (CFU/mL) of each group was calculated, and converted to logarithmic value (N), and then the killing logarithmic value was calculated according to the following equation:
as §10, §11

Cc1cc(O)cc(C)c1Cl [4-Chloro-3,5-dimethylphenol solution, 4-chloro-3,5-dimethylphenol]
Killing logarithmic value ([1]; 0.15 g/L, 1 min): 2.07 | Killing logarithmic value ([1]; 0.15 g/L, 5 min): 2.74 | Killing logarithmic value ([1]; 0.15 g/L, 15 min): 2.90 | Killing logarithmic value ([1]; 0.15 g/L, 30 min): 3.16 | Killing logarithmic value ([1]; 0.31 g/L, 1 min): 3.12 | Killing logarithmic value ([1]; 0.31 g/L, 5 min): 3.30 | Killing logarithmic value ([1]; 0.31 g/L, 15 min): 3.45 | Killing logarithmic value ([1]; 0.31 g/L, 30 min): 4.13 | Killing logarithmic value ([2]; 0.15 g/L, 1 min): 1.69 | Killing logarithmic value ([2]; 0.15 g/L, 5 min): 1.78 | Killing logarithmic value ([2]; 0.15 g/L, 15 min): 2.32 | Killing logarithmic value ([2]; 0.15 g/L, 30 min): 2.99 | Killing logarithmic value ([2]; 0.31 g/L, 1 min): 6.17 | Killing logarithmic value ([2]; 0.31 g/L, 5 min): 6.17 | Killing logarithmic value ([2]; 0.31 g/L, 15 min): 6.17 | Killing logarithmic value ([2]; 0.31 g/L, 30 min): 6.17 | Killing logarithmic value ([3]; 0.15 g/L, 1 min): 0.78 | Killing logarithmic value ([3]; 0.15 g/L, 5 min): 0.87 | Killing logarithmic value ([3]; 0.15 g/L, 15 min): 0.94 | Killing logarithmic value ([3]; 0.15 g/L, 30 min): 0.96 | Killing logarithmic value ([3]; 0.31 g/L, 1 min): 4.77 | Killing logarithmic value ([3]; 0.31 g/L, 5 min): 4.87 | Killing logarithmic value ([3]; 0.31 g/L, 15 min): 4.91 | Killing logarithmic value ([3]; 0.31 g/L, 30 min): 4.95

CNC(=O)C(c1ccc(O)c(O)c1)C1CCCCC1 (stereo not drawn) [Example 1, 2-cyclohexyl-2-(3,4-dihydroxyphenyl)-N-methylacetamide]
Activity (killing logarithmic value) [1]: 1.16 | Activity (killing logarithmic value) [2]: 1.23 | log reduction at 15000 µg/mL [4]: 1.35 | Activity (killing logarithmic value) [3]: 1.31

CC(C)NC(=O)C(c1ccccc1)c1ccc(O)cc1 (stereo not drawn) [Example 2, 2-(4-hydroxyphenyl)-N-isopropyl-2-phenylacetamide]
Activity (killing logarithmic value) [1]: 0.89 | Activity (killing logarithmic value) [2]: 0.97 | log reduction at 15000 µg/mL [4]: 0.98 | Activity (killing logarithmic value) [3]: 0.99

CNC(=O)C(c1ccccc1)c1ccc(F)c(F)c1 (stereo not drawn) [Example 3, 2-(3,4-difluorophenyl)-N-methyl-2-phenylacetamide]
Activity (killing logarithmic value) [1]: 1.54 | Activity (killing logarithmic value) [2]: 1.14 | log reduction at 15000 µg/mL [4]: 2.07 | Activity (killing logarithmic value) [3]: 1.56
